For data set [1], the target named is T1, CYP19A1 (Aromatase) (Homo sapiens, UniProt P11511).
T1 construct: purchased BioVision K984-100
T1 sequence (P11511 1-503): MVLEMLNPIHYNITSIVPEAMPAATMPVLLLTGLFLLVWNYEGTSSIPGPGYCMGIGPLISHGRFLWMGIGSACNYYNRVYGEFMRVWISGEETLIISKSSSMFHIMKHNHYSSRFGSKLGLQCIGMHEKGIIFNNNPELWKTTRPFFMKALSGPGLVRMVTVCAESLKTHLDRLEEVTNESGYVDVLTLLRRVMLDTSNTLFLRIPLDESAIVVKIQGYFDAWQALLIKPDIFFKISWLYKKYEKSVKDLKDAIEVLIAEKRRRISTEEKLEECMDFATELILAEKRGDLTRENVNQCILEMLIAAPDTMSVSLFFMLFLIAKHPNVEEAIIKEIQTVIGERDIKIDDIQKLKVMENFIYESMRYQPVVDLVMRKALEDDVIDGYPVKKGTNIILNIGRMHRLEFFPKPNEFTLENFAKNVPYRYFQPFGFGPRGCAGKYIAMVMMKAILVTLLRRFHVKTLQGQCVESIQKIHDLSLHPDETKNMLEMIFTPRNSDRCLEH
In words: Aromatase (CYP19A1) Inhibitor Screening Kit, recombinant enzyme. It counts as biochemical. How it is done: The in vitro tests on Aromatase were performed by using the Kit Cat# K984-100 assay kit; the Regeneration System, 100× and NADP^+: (100×), 10 mM were used as reaction buffer. In particular, the enzyme was first prepared with the Regeneration System and substrate with NADP^+ in freshly prepared reaction buffer. Then, the resulting solution was delivered into the reaction well.

The test system of data set [2] is CYP11B2 (Aldosterone Synthase). Particulars: cited from earlier work.
Data set [3] addresses CYP11B1 (11β-Hydroxylase). Particulars: cited from earlier work.
The test system of data set [4] is MCF-7 cells. In words: Cell proliferation assay (trypan blue cell count). Particulars: read-out: antiproliferative IC50. It counts as cell-based, human. How it is done:
MCF-7 and MDA-MB-231 cells were plated in 24-well plates and allowed to attach overnight. […] At the end of the treatment, viable cells (evaluated by trypan blue dye exclusion) were counted with a hemocytometer.

Where two headings read alike, the source gives them in different places.

Consider `OCc1cnc(S)n1Cc1ccc(Cl)cc1Cl` [X1], for which the “inhibition of CYP19A1” value in data set [1] is listed as “no inhibition”.

As to `N#Cc1ccc(C(c2ccc(C#N)cc2)n2cncn2)cc1` [letrozole], the IC50 in data set [2] was 1420 nM; in data set [3], 2620 nM; in data set [4] (Homo sapiens, MCF7, 24 h, MCF-7, 24 h), 764 ± 114 nM; in data set [4] (Homo sapiens, MCF7, 48 h, MCF-7, 48 h) it was 599 ± 333 nM; in data set [4] (Homo sapiens, MCF7, 72 h, MCF-7, 72 h), 121 ± 30 nM; in data set [4] (MCF-7, 72 h), 120 ± 30 nM.

Turning to `O=[N+]([O-])c1cc(C(F)(F)F)ccc1Sc1ncc(CO)n1Cc1ccccc1` [X12, (1-Benzyl-2-((2-nitro-4-(trifluoromethyl)phenyl)thio)-1H-imidazol-5-yl)methanol], the melting point lay within 225.4 to 226.9 °C.

Values taken from publication PMC10714424, “Discovery of a Potent Dual Inhibitor of Aromatase and Aldosterone Synthase” (ACS Pharmacology & Translational Science, 2023).
